“And” between values parts separate entries of the source, which are not always exact repeats. Identical values can stand only once. Like-named read-outs stand apart in the source and are kept apart here.

Results on four molecules are retold here after paper PMC7702303, “Biochemical and transcript level differences between the three human phosphofructokinases show optimisation of each isoform for specific metabolic niches” (Biochemical Journal, 2020).

One assay deals with T1, recombinant human PFK-L (Homo sapiens, UniProt P17858).
T1 construct: made in house; host or cells: PFK-deficient Saccharomyces cerevisiae
T1 sequence (P17858 1-780): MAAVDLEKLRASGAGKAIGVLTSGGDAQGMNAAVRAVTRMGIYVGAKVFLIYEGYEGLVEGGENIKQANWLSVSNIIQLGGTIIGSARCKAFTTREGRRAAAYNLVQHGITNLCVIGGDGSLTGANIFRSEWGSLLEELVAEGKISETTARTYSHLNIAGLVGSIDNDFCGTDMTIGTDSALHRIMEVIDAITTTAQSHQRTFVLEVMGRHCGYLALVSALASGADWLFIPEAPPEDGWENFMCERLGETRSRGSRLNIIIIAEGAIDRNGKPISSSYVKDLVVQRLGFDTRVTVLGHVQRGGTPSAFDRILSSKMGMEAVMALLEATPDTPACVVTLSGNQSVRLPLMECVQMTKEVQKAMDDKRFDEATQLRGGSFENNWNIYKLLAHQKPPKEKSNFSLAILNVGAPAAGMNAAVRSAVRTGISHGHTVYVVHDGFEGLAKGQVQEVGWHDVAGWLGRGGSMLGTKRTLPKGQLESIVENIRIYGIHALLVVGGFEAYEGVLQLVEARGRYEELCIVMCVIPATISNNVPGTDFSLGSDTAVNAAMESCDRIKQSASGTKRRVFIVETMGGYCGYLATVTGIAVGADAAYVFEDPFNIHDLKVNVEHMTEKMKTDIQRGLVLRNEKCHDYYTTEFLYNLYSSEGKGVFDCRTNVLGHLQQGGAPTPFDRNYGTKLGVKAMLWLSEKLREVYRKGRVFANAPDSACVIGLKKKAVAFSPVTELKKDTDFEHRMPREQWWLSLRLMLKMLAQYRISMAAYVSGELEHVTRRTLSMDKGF
Briefly: ALDO-TIM-G3PDH enzyme-linked kinetic assay, PFK-L. The assay is classed as biochemical. Conditions: PFK-L; for K0.5ATP + modulator / VmaxATP + modulator: F6P 4mM. The protocol:
(§1) Recombinant human PFKs were expressed in PFK-deficient Saccharomyces cerevisiae and purified using the methods described previously, adapting earlier materials and protocols. Production of PFK intended for use in ATP titration experiments used 1 mM F6P as a tetramer stabilising agent in protein purification and storage buffers. Production of PFK intended for use in F6P titration experiments used 1 mM ATP as a tetramer stabilising agent in protein purification and storage buffers. Experimental details on the purification and characterisation procedures including figures showing SDS–PAGE gels of the highly pure PFKs used in the kinetic experiments described in this work have been recently published.
(§2) Assay buffer consisted of 50 mM TEA, 100 mM KCl, 10 mM MgCl2, 1 mM Tris(2-carboxyethyl)phosphine hydrochloride (TCEP), 10% glycerol, pH 7.4. Assay mix consisted of 5 units/ml glycerol-3-phosphate dehydrogenase (G3PDH, Sigma–Aldrich G6880), 2.5 units/ml aldolase (Sigma–Aldrich A2714), 25 units/ml triosephosphate isomerase (TIM, Sigma–Aldrich T6258), and 1.25 mM NADH. ATP and F6P were obtained from Sigma–Aldrich (A2383 and F3627, respectively). For ATP titrations, 38 µl of buffer or ligand were added to a clear non-binding 96-well plate. 40 µl of assay mix containing 10 mM F6P (final concentration 4 mM) was added and the plate was incubated at 25°C for 5 min. An amount of 2 µl of PFK isoforms were added to each well from stock concentrations of 150 µg/ml and the reaction was immediately started with 20 µl of ATP at varying concentrations. For F6P titrations, 30 µl of buffer or ligand was added to a clear non-binding 96-well plate. An amount of 40 µl of assay mix containing 1.25 mM ATP (final concentration 0.5 mM) was added and the plate was incubated at 25°C for 5 min. An amount of 5 µl of PFK isoforms were added to each well from stock concentrations of 200 µg/ml and the reaction was immediately started with 20 µl F6P at varying concentrations. All ligands and substrates (including ATP) were used at pH 7.4. All metabolites were obtained from Sigma–Aldrich unless otherwise stated. […] A SpectraMax M5 Multi-Mode Microplate Reader was used to measure A340nm at 13 s intervals for 10 min. All experiments were performed in triplicate unless otherwise stated.
(§3) Time-dependent absorbance change was converted into rate of NADH oxidation (µM s^−1) or specific activity (µmol min^−1 mg protein^−1) using the Beer-Lambert law (molar extinction coefficient of NADH 6.22 mM^−1 cm^−1). The initial rate of reaction was used to avoid accumulation of ADP, which activates PFK, interfering with the determination of kinetic properties. Non-linear regression analysis was performed on substrate titration data using GraphPad Prism 7, with curves fitted using allosteric sigmoidal models, enabling determination of steady-state kinetic values.

For the next assay, the target named is T2, recombinant human PFK-P (Homo sapiens, UniProt Q01813).
T2 construct: made in house; host or cells: PFK-deficient Saccharomyces cerevisiae
T2 sequence (Q01813 1-784): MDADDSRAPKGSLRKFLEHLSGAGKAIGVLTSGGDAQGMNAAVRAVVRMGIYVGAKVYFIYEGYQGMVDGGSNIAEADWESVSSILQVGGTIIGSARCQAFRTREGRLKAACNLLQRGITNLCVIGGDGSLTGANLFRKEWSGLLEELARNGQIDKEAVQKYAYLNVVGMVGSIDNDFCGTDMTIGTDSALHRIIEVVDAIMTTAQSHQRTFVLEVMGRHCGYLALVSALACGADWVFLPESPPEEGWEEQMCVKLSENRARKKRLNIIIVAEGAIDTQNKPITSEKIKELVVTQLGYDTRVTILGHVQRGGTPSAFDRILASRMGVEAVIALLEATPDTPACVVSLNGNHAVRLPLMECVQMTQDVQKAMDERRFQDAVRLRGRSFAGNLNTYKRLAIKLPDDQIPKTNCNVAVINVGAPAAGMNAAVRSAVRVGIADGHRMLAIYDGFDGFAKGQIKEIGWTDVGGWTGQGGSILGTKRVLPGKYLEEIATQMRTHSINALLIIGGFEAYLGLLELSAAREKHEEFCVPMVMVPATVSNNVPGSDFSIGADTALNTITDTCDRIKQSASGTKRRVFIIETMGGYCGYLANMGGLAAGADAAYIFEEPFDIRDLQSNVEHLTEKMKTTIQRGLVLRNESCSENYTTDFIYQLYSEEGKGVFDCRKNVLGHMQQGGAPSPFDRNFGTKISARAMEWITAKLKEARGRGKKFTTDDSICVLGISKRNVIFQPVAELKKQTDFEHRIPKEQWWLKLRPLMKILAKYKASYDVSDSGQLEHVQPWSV
Briefly: ALDO-TIM-G3PDH enzyme-linked kinetic assay, PFK-P. The settings on record: for K0.5ATP + modulator / VmaxATP + modulator: F6P 4mM. It is filed as biochemical. The protocol:
as §1, §2, §3

Another assay has as its system PFK. The arrangement: key to Effect (activator or inhibitor of PFK): “+” indicates activator; “-“ indicates inhibitor. Conditions: cited from earlier work; for Effect (activator or inhibitor of PFK): published literature, ref selected references in Supplementary Table 1; for IC50 or AC50 (activator): asterisk not explained, ref Moreno-Sanchez et al., 2012.
[1] abbreviates: modulator 600 µM, ATP 0.5mM, N=3, mean (SD).
The mark [2] stands for this setting: modulator 600 µM, N=3, mean (SD).
[3] abbreviates: modulator 1200 µM, ATP 0.5mM, N=3, mean (SD).
[4] abbreviates: modulator 1200 µM, N=3, mean (SD).
The mark [5] stands for this setting: F6P titration, ATP 0.5 mM, n = 6, mean (SD).
[6] abbreviates: control without modulator, run alongside modulator experiments, ATP 0.5mM, N=3, mean (SD).
[7] abbreviates: GTP titration, F6P 4 mM, n = 3, mean (SD).
Setting [8] is: Hill value, GTP titration, F6P 4 mM, n = 3, mean (SD).

Turning to `Nc1ncnc2c1ncn2[C@@H]1O[C@H](COP(=O)(O)OP(=O)(O)O)[C@@H](O)[C@H]1O` [ADP], the “effect on PFK activity, in words” value on recombinant human PFK-L is on record as “mixed effects”; at recombinant human PFK-P, “activating”. Further, the “change in kcat^ATP/K0.5^ATP compared with control PFK without modulator” value at recombinant human PFK-L (modulator 600 µM) is given as −47%; on recombinant human PFK-P (modulator 600 µM), “+39%”. Also, the “change in kcat^F6P/K0.5^F6P compared with control PFK without modulator” value was “+157%” at recombinant human PFK-L (modulator 600 µM) and “+129%” on recombinant human PFK-P (modulator 600 µM). Further, the “K0.5F6P + modulator” value at recombinant human PFK-L (setting [1]) was 872.9 (14.9) M; on recombinant human PFK-P (setting [1]) it was 821.7 (53.4) M. The “VmaxF6P + modulator” value on recombinant human PFK-L (setting [1]) is reported as 5.65 (0.07) moles/min/mg; at recombinant human PFK-P (setting [1]), 2.51 (0.11) moles/min/mg. Besides, the “K0.5ATP + modulator” value at recombinant human PFK-L (setting [2]) is on record as 362.0 (46.5) M; at recombinant human PFK-P (setting [2]), 290.5 (36.0) M. Moreover, the “VmaxATP + modulator” value was 49.38 (2.48) moles/min/mg on recombinant human PFK-L (setting [2]) and 37.99 (1.74) moles/min/mg on recombinant human PFK-P (setting [2]). In addition, the “Effect (activator or inhibitor of PFK)” value in the assay on PFK is reported as “+”.

For the molecule `Nc1ncnc2c1ncn2[C@@H]1O[C@H](COP(=O)(O)O)[C@@H](O)[C@H]1O` [AMP], the “decrease in K0.5^F6P by AMP” value on recombinant human PFK-L (F6P titration) was “more than 5 fold”; on recombinant human PFK-P (F6P titration) it was “two-fold decrease”. For the same molecule, the entries for the “change in kcat^ATP/K0.5^ATP compared with control PFK without modulator” value at recombinant human PFK-L (modulator 1200 µM) and on recombinant human PFK-P (modulator 1200 µM) were “+9%” and “+220%”, respectively. Also, the “change in kcat^F6P/K0.5^F6P compared with control PFK without modulator” value at recombinant human PFK-L (modulator 1200 µM) is on record as “+766%”; on recombinant human PFK-P (modulator 1200 µM), “+162%”. Further, the “K0.5F6P + modulator” value is reported as 260.6 (8.2) M on recombinant human PFK-L (setting [3]) and 607.0 (31.0) M at recombinant human PFK-P (setting [3]). The “VmaxF6P + modulator” value on recombinant human PFK-L (setting [3]) is given as 5.68 (0.06) moles/min/mg; at recombinant human PFK-P (setting [3]), 2.13 (0.06) moles/min/mg. For the same molecule, the “K0.5ATP + modulator” value on recombinant human PFK-L (setting [4]) was 156.9 (17.6) M; at recombinant human PFK-P (setting [4]) it was 94.4 (10.8) M. Besides, the “VmaxATP + modulator” value on recombinant human PFK-L (setting [4]) was 44.45 (1.74) moles/min/mg; at recombinant human PFK-P (setting [4]) it was 28.38 (1.07) moles/min/mg. The “IC50 or AC50 (activator)” value in the assay on PFK (first of three values marked *) is 860 µM; in the assay on PFK (second of three values marked *), 5800 µM; in the assay with PFK (third of three values marked *), 1550 µM. Further, the “Effect (activator or inhibitor of PFK)” value with PFK is on record as “+”.

Consider `O=C(CO)[C@@H](O)[C@H](O)[C@H](O)COP(=O)(O)O` [F6P, fructose 6-phosphate], for which the “K0.5^F6P” value on recombinant human PFK-L (setting [5]) was 1360 µM and 1360 (40) µM; at recombinant human PFK-P (setting [5]), 1333 µM and 1333 (312) µM. The K0.5F6P is 1432 (34) M and 1282 (53) M on recombinant human PFK-L (setting [6]); 1238 (179) M and 1607 (90) M on recombinant human PFK-P (setting [6]).

Take `Nc1nc2c(ncn2[C@@H]2O[C@H](COP(=O)(O)OP(=O)(O)OP(=O)(O)O)[C@@H](O)[C@H]2O)c(=O)[nH]1` [GTP]: at recombinant human PFK-L (setting [7]), the “K0.5^GTP” value is 158 µM and 157.8 (10.8) µM; the “Vmax^GTP” value is on record as 25.39 (0.56) µmoles/min.mg; the “kcat^GTP” value was 37.0 (0.8) s^−1; the “kcat^GTP/K0.5^GTP” value was 0.23 s^−1 µM^−1 and 0.23 (0.07) s^−1 µM^−1. The “h (GTP)” value on recombinant human PFK-L (setting [8]) is given as 1.18 (0.08). Further, at recombinant human PFK-P (setting [7]), the “K0.5^GTP” value was 131 µM and 131 (20.9) µM; the “Vmax^GTP” value is on record as 12.30 (0.62) µmoles/min.mg; the “kcat^GTP” value was 17.9 (0.9) s^−1; the “kcat^GTP/K0.5^GTP” value is 0.14 s^−1 µM^−1 and 0.14 (0.04) s^−1 µM^−1. Further, the “h (GTP)” value on recombinant human PFK-P (setting [8]) is on record as 1.12 (0.18).
